Data: paper PMC12189828, “Substitution of Proline Residues by 4-Fluoro-L-Proline Affects the Mechanism of the Proline-Rich Antimicrobial Peptide Api137” (Antibiotics, 2025)
Where a SMILES comes first, the peptide text is derived from it. [ ]: non-standard residue; d: D form. The star is where a group is joined. Orn(α-tetramethylguanidino) = CN(C)C(=N[C@@H](CCCN)C(=O)*)N(C)C; Pro(trans-4-F) = O=C(O)[C@@H]1C[C@@H](F)CN1; Pro(cis-4-F) = O=C(O)[C@@H]1C[C@H](F)CN1

Experiments:
[1] = tested on: 50S subunit assembly / 70S ribosome in E. coli RN31; assay: Ribosome profile analysis (RPA), sucrose gradient of E. coli RN31 lysate; format: cell-based, Escherichia coli; details: 90 min; for RPA [pre-50S formation]: E. coli RN31, 33% TSB, peptide 8 µg/mL, 5–25% sucrose gradient, n = 2 (Api137 n = 7)
Procedure: E. coli RN31 was grown in 33% TSB (37 °C, 200 rpm) from a starting OD600 of 0.05 to an OD600 of 0.2, measured on a NanoPhotometer® (NP80; Implen; Westlake Village, CA, USA), and divided into subcultures that were inoculated with a peptide ([…]) before being cultured for 90 min (37 °C, 200 rpm). The following steps were performed on ice. Cells were harvested by centrifugation (4000× g, 4 °C, 25 min), washed with TICO buffer (20 mmol/L Hepes-KOH, pH 7.6, 6 mmol/L MgAc2, 30 mmol/L KAc), centrifuged (4000× g, 25 min, 4 °C), and stored at −80 °C. The cell pellet was suspended in TICO buffer (500 µL) and mixed with silica beads (zirconium glass pellets, 100 µm diameter; Carl Roth; Karlsruhe, Germany) to lyse the cells on a FastPrep-24^TM 5G (MP Biomedicals, Solon, OH, USA) using three disruption cycles (30 s, 6.0 m/s) interrupted by 1 min of incubation on ice after each cycle. Cell debris was removed by centrifugation (5000× g, 4 °C, 5 min), the supernatant was transferred to a new reaction tube, centrifuged (20,000× g, 4 °C, 20 min), the absorbance was recorded at 260 nm on a NanoPhotometer® NP80, and the sample was stored at −80 °C.
A 5% (w/v) sucrose solution (6.5 mL) in TICO buffer containing 2-mercaptoethanol (4 mmol/L) was poured into an open-top centrifuge tube (13.2 mL, 14 × 89 mm, Beckman Coulter) and bottomed with a 25% (w/v) sucrose solution (6.5 mL) in TICO buffer containing 2-mercaptoethanol (4 mmol/L) using a cannula. The tube was sealed with parafilm and placed horizontally at 4 °C for 3 h and vertically at 4 °C for 30 min. A portion of the upper layer (550 µL) was replaced by lysate (500 µL, A260 = 30) and centrifuged using a swing-out rotor (SW 41 Ti, 52,500× g, 4 °C, 19 h) without a brake. The contents were transferred from bottom-up to obtain equal volumes in all wells of a black 96-well plate with a flat bottom (96 Well PP black Greiner Bio-One GmbH, Frickenhausen, Germany) using the Äkta Purifier 10 system, and absorbance was recorded at a wavelength of 254 nm. Fluorescence was measured in the plate using the PARADIGM at excitation (λex) and emission (λem) wavelengths of 485 nm and 535 nm for eGFP and 585 nm and 635 nm, respectively, for mCherry and normalized to the 70S ribosome peak (set to 100%).

[2] = tested on: in vitro expression of sfGFP in the presence of RF1; assay: In vitro transcription-translation (iTT) assay of sfGFP in the presence of RF1; format: biochemical; details: peptide 5 µmol/L, RF1, 37 °C, 2 h, fluorescence, normalized to absence of PrAMPs, n = 3
Procedure: The sfGFP expression analysis relied on the NEB PureExpress Delta RF123 Kit (New England Biolabs, Frankfurt, Germany). The DNA template encoding sfGFP with a UAG stop codon was amplified from the pY71sfGFP vector by PCR using the primers sfGFP fwd ([…]) and sfGFP rev ([…]). The release factor RF1 of the kit was diluted 50-fold (v/v) in 1× Pure System Buffer (PSB, 1 mol/L magnesium acetate, 0.5 mol/L K3PO4 (pH 7.3), 1 mol/L potassium glutamate, 1 mol/L NH4Cl, 0.5 mol/L CaCl2, 1 mol/L spermidine, 0.1 mol/L putrescine, 0.1 mol/L DTT). sfGFP expression was performed in a freshly prepared mixture of kit solution A (2 µL), kit solution B (1.5 µL), 50-fold diluted RF1 (0.5 µL), sfGFP template (0.1325 pmol, 35 ng) or water as control (0.25 µL), PSB (0.25 µL), and a PrAMP (50 or 0 µmol/L) dissolved in water (0.5 µL). The reaction mixture was transferred to a black 384-well plate (flat bottom, PS, 784900, Greiner Bio-One GmbH), covered with a lid, and incubated (37 °C, 2 h) in a microplate reader (Gemini EM, Molecular Devices, San Jose, CA, USA). Fluorescence was recorded every 10 min (λex = 485 nm, λem = 535 nm).

[3] = tested on: E. coli RN31; assay: Growth inhibition of E. coli RN31 during 90 min exponential growth phase; format: cell-based, Escherichia coli; details: E. coli RN31, 33% TSB, peptide 8 µg/mL, 90 min, OD600; two biological replicates (n = 2)
Procedure: The following steps were performed on ice. Cells were harvested by centrifugation (4000× g, 4 °C, 25 min), washed with TICO buffer (20 mmol/L Hepes-KOH, pH 7.6, 6 mmol/L MgAc2, 30 mmol/L KAc), centrifuged (4000× g, 25 min, 4 °C), and stored at −80 °C. The cell pellet was suspended in TICO buffer (500 µL) and mixed with silica beads (zirconium glass pellets, 100 µm diameter; Carl Roth; Karlsruhe, Germany) to lyse the cells on a FastPrep-24^TM 5G (MP Biomedicals, Solon, OH, USA) using three disruption cycles (30 s, 6.0 m/s) interrupted by 1 min of incubation on ice after each cycle. Cell debris was removed by centrifugation (5000× g, 4 °C, 5 min), the supernatant was transferred to a new reaction tube, centrifuged (20,000× g, 4 °C, 20 min), the absorbance was recorded at 260 nm on a NanoPhotometer® NP80, and the sample was stored at −80 °C. […]

| SMILES | RPA [pre-50S formation] [1] | Residual iTT (sfGFP expression relative to no PrAMP) [2] [%] | reduction of bacterial growth vs untreated control [3] [%] | 70S peak (area) relative to untreated control ([1]; E. coli RN31, peptide 8 µg/mL, sucrose gradient profile) | Residual iTT (sfGFP expression relative to no PrAMP) ([2]; listed as 4S-Fpr16) [%] | Residual iTT (sfGFP expression relative to no PrAMP) ([2]; listed as Pro16 4S-Fpr (cis)) [%] |
| --- | --- | --- | --- | --- | --- | --- |
| CC[C@H](C)[C@H](NC(=O)[C@H](Cc1ccc(O)cc1)NC(=O)[C@@H](NC(=O)[C@@H]1CCCN1C(=O)[C@H](CCCNC(=N)N)NC(=O)[C@H](CC(N)=O)NC(=O)[C@H](CC(N)=O)NC(=O)[C@H](CCCN)N=C(N(C)C)N(C)C)C(C)C)C(=O)N1C[C@@H](F)C[C@H]1C(=O)N[C@@H](CCCNC(=N)N)C(=O)N1CCC[C@H]1C(=O)N[C@@H](CCCNC(=N)N)C(=O)N1CCC[C@H]1C(=O)N1CCC[C@H]1C(=O)N[C@@H](Cc1c[nH]cn1)C(=O)N1CCC[C@H]1C(=O)N[C@@H](CCCNC(=N)N)C(=O)N[C@@H](CC(C)C)C(=O)O [Api845] ({Orn(α-tetramethylguanidino)}-NNRPVYI[Pro(cis-4-F)]RPRPPHPRL-OH) | yes | 26 ± 5.7 | 62 |  |  |  |
| CC[C@H](C)[C@H](NC(=O)[C@H](Cc1ccc(O)cc1)NC(=O)[C@@H](NC(=O)[C@@H]1CCCN1C(=O)[C@H](CCCNC(=N)N)NC(=O)[C@H](CC(N)=O)NC(=O)[C@H](CC(N)=O)NC(=O)[C@H](CCCN)N=C(N(C)C)N(C)C)C(C)C)C(=O)N1C[C@H](F)C[C@H]1C(=O)N[C@@H](CCCNC(=N)N)C(=O)N1CCC[C@H]1C(=O)N[C@@H](CCCNC(=N)N)C(=O)N1CCC[C@H]1C(=O)N1CCC[C@H]1C(=O)N[C@@H](Cc1c[nH]cn1)C(=O)N1CCC[C@H]1C(=O)N[C@@H](CCCNC(=N)N)C(=O)N[C@@H](CC(C)C)C(=O)O [Api846] ({Orn(α-tetramethylguanidino)}-NNRPVYI[Pro(trans-4-F)]RPRPPHPRL-OH) | no | 33 ± 3.5 | 34 | ~ 45% |  |  |
| CC[C@H](C)[C@H](NC(=O)[C@H](Cc1ccc(O)cc1)NC(=O)[C@@H](NC(=O)[C@@H]1CCCN1C(=O)[C@H](CCCNC(=N)N)NC(=O)[C@H](CC(N)=O)NC(=O)[C@H](CC(N)=O)NC(=O)[C@H](CCCN)N=C(N(C)C)N(C)C)C(C)C)C(=O)N1CCC[C@H]1C(=O)N[C@@H](CCCNC(=N)N)C(=O)N1CCC[C@H]1C(=O)N[C@@H](CCCNC(=N)N)C(=O)N1CCC[C@H]1C(=O)N1CCC[C@H]1C(=O)N[C@@H](Cc1c[nH]cn1)C(=O)N1C[C@@H](F)C[C@H]1C(=O)N[C@@H](CCCNC(=N)N)C(=O)N[C@@H](CC(C)C)C(=O)O [Api849] ({Orn(α-tetramethylguanidino)}-NNRPVYIPRPRPPH[Pro(cis-4-F)]RL-OH) | no |  | 16 |  | 63 | 63 ± 8.9 |
| CC[C@H](C)[C@H](NC(=O)[C@H](Cc1ccc(O)cc1)NC(=O)[C@@H](NC(=O)[C@@H]1CCCN1C(=O)[C@H](CCCNC(=N)N)NC(=O)[C@H](CC(N)=O)NC(=O)[C@H](CC(N)=O)NC(=O)[C@H](CCCN)N=C(N(C)C)N(C)C)C(C)C)C(=O)N1CCC[C@H]1C(=O)N[C@@H](CCCNC(=N)N)C(=O)N1C[C@H](F)C[C@H]1C(=O)N[C@@H](CCCNC(=N)N)C(=O)N1CCC[C@H]1C(=O)N1CCC[C@H]1C(=O)N[C@@H](Cc1c[nH]cn1)C(=O)N1CCC[C@H]1C(=O)N[C@@H](CCCNC(=N)N)C(=O)N[C@@H](CC(C)C)C(=O)O [Api842] ({Orn(α-tetramethylguanidino)}-NNRPVYIPR[Pro(trans-4-F)]RPPHPRL-OH) | reduced | 31 ± 0.7 | 49 |  |  |  |
| CC[C@H](C)[C@H](NC(=O)[C@H](Cc1ccc(O)cc1)NC(=O)[C@@H](NC(=O)[C@@H]1CCCN1C(=O)[C@H](CCCNC(=N)N)NC(=O)[C@H](CC(N)=O)NC(=O)[C@H](CC(N)=O)NC(=O)[C@H](CCCN)N=C(N(C)C)N(C)C)C(C)C)C(=O)N1CCC[C@H]1C(=O)N[C@@H](CCCNC(=N)N)C(=O)N1CCC[C@H]1C(=O)N[C@@H](CCCNC(=N)N)C(=O)N1C[C@@H](F)C[C@H]1C(=O)N1CCC[C@H]1C(=O)N[C@@H](Cc1c[nH]cn1)C(=O)N1CCC[C@H]1C(=O)N[C@@H](CCCNC(=N)N)C(=O)N[C@@H](CC(C)C)C(=O)O [Api843] ({Orn(α-tetramethylguanidino)}-NNRPVYIPRPR[Pro(cis-4-F)]PHPRL-OH) | yes | 28 ± 3.2 | 56 |  |  |  |
